The source made the active and inactive calls.
Tests used:
[1] = target: T1, Protein disulfide-isomerase (Homo sapiens, UniProt P07237); test: PDI inhibitors, insulin aggregation turbidity, dose response, biochemical, absorbance, cherry-picked samples (AID 602350); format: functional
[2] = target: T1, Protein disulfide-isomerase; test: PDI inhibitors, insulin turbidity readout, dose response, biochemical, absorbance, cherry-picked samples, set 2 (AID 624274); format: functional
[3] = target: Induced myeloid leukemia cell differentiation protein Mcl-1 (Homo sapiens, UniProt Q07820); format: functional
[4] = target: Intestinal-type alkaline phosphatase (Mus musculus, UniProt P24822); test: PubChem AID 488785; format: functional
[5] = target: T2, Alkaline phosphatase, tissue-nonspecific isozyme (Homo sapiens, UniProt P05186); test: TNAP enzyme inhibition by screening hits, dose response, selectivity assay for mouse IAP inhibitor project, biochemical, human TNAP, uHTS hits (AID 488906); format: functional
T2 sequence (P05186 whole entry): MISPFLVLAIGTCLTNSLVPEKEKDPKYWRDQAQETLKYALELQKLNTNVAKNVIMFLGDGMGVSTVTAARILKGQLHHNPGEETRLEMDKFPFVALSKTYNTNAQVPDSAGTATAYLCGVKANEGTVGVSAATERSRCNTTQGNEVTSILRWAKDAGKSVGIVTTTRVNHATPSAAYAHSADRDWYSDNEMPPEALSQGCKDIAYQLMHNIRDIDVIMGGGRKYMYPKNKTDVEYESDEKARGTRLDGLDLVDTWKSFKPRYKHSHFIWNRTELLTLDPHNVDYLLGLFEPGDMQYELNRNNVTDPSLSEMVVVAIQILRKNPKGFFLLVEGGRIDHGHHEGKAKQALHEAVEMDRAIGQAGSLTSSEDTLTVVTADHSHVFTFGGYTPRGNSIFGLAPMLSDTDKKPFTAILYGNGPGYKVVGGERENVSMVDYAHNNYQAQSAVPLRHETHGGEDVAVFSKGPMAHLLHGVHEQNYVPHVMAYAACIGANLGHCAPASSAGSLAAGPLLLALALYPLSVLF

[6] = target: Intestinal-type alkaline phosphatase (Homo sapiens, UniProt P09923); test: inhibition of human intestinal alkaline phosphatase – biochemical, dose response (AID 488876); format: functional
[7] = target: Multidrug resistance protein CDR2 (Candida albicans (strain SC5314 / ATCC MYA-2876) (Yeast), UniProt P78595); test: CaCDR2 efflux pump inhibitors in yeast, dose response, S. cerevisiae AD1-8u, singleplex, Cherry Pick1 hits (AID 588604); format: functional
[8] = target: Dual specificity tyrosine-phosphorylation-regulated kinase 1A (Rattus norvegicus, UniProt Q63470); format: biochemical, Homo sapiens
[9] = target: 26S proteasome non-ATPase regulatory subunit 14 (Homo sapiens, UniProt O00487); test: inhibition of proteasome subunit RPN11 – biochemical, fluorescence polarization, uHTS hits, confirmation (AID 602368); format: functional
[10] = target: 72 kDa type IV collagenase (Homo sapiens, UniProt P08253); test: Dose Response validation of uHTS RPN11 inhibitor hits using a MMP-2 Fluorescence assay.; format: functional
[11] = target: Prothrombin (Bos taurus, UniProt P00735); test: thrombin inhibition, dose response, biochemical, fluorescence polarization, uHTS hits (AID 602369); format: functional
[12] = target: T3, Rac GTPase-activating protein 1 (Homo sapiens, UniProt Q9H0H5); test: MgcRacGAP GTPase-activating activity inhibitors, confirmation, biochemical, ADP Hunter fluorescence, primary and confirmatory (AID 624330); format: functional
T3 sequence (Q9H0H5 whole entry): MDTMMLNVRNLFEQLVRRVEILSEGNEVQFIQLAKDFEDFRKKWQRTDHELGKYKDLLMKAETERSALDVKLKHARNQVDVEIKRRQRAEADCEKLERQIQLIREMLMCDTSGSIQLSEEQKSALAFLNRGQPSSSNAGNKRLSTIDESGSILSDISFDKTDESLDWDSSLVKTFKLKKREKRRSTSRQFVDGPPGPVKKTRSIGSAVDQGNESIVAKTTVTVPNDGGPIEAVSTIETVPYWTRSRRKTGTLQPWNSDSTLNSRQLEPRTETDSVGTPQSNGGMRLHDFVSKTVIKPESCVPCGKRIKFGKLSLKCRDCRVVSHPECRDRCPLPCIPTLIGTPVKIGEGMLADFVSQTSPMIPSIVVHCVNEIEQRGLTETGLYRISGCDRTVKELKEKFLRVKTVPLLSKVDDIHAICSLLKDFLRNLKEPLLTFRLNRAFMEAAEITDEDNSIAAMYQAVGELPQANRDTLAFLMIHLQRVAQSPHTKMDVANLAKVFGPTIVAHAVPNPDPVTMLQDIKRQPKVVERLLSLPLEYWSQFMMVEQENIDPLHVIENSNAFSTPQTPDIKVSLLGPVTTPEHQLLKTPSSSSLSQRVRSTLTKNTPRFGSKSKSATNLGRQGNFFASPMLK

[13] = target: T4, Neuropeptides B/W receptor type 1 (Homo sapiens, UniProt P48145); test: GPR7 antagonist potency, late-stage follow-up, cell-based, fluorescence, dose response, set 5 (AID 588566); format: functional
T4 sequence (P48145 whole entry): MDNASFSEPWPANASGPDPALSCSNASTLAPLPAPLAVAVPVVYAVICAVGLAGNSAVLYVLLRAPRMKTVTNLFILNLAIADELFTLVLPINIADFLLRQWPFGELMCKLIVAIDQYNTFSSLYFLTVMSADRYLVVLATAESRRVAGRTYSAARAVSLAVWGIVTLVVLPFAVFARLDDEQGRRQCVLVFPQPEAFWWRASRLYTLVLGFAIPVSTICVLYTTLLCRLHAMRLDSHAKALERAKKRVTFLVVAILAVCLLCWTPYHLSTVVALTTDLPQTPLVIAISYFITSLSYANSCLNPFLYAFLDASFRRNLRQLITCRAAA

[14] = target: Melanin-concentrating hormone receptor 1 (Homo sapiens, UniProt Q99705); test: Late-stage fluorescence-based counterscreen for antagonists of the G-protein coupled receptor 7 (GPR7): cell-based dose response assay to identify antagonists of the melanin-concentrating hormone receptor 1 (MCHR1) Set 5.; format: functional
[15] = target: Cell division cycle 7-related protein kinase (Homo sapiens, UniProt O00311); format: functional;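 further: value obtained from a kinome-wide kinase panel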
[16] = target: Homeodomain-interacting protein kinase 2 (Homo sapiens, UniProt Q9H2X6); format: functional;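 further: measured within a kinome-wide kinase profiling panel, HIPK2 being one panel member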
[17] = target: Interleukin-1 receptor-associated kinase 4 (Homo sapiens, UniProt Q9NWZ3); format: functional
[18] = target: Glycogen synthase kinase-3 beta (Homo sapiens, UniProt P49841); format: functional;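 further: value comes from a broad kinome profiling panel, with GSK3B as the panel member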
[19] = target: Dual specificity protein kinase CLK4 (Homo sapiens, UniProt Q9HAZ1); format: functional
[20] = target: Mitogen-activated protein kinase kinase kinase kinase 4 (Homo sapiens, UniProt O95819); format: functional
[21] = target: T5, Replicative DNA helicase DnaB (Mycobacterium tuberculosis, UniProt P9WMR3); test: DnaB intein splicing inhibitors, dose response, biochemical, cell-free fluorescence (AID 449749); format: functional
T5 sequence (P9WMR3 whole entry): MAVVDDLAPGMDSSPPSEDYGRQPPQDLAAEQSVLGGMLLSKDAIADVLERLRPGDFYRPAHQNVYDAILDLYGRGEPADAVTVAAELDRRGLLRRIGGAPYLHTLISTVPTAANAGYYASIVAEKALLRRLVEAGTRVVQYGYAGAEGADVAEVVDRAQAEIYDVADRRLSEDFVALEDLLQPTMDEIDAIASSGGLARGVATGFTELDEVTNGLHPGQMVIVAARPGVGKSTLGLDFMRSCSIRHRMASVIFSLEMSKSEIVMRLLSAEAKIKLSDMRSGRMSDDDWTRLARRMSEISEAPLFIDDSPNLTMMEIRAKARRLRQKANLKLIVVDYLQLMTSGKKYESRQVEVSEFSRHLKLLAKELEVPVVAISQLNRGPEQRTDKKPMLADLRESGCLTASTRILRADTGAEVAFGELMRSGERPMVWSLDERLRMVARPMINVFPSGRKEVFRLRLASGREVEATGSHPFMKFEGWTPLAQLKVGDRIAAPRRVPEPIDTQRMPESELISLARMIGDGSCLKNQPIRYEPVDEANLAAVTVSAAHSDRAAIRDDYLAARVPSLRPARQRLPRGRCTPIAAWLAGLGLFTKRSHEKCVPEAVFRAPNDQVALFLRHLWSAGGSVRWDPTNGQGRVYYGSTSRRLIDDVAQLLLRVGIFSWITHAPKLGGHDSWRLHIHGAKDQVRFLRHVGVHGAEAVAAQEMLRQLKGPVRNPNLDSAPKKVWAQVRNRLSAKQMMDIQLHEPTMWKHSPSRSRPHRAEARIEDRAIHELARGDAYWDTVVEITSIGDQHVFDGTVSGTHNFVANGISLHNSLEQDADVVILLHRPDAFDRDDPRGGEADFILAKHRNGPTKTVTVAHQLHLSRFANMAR

[22] = target: T6, Protein RecA (Mycobacterium tuberculosis, UniProt P9WHJ3); test: Fluorescence Cell-Free Homogeneous Dose Retest to Identify Inhibitors of RecA-Intein Splicing Activity. [Related pubchem assays (depositor defined):AID2097, AID2223, AID489010, AID492950]; format: functional
T6 sequence (P9WHJ3 whole entry): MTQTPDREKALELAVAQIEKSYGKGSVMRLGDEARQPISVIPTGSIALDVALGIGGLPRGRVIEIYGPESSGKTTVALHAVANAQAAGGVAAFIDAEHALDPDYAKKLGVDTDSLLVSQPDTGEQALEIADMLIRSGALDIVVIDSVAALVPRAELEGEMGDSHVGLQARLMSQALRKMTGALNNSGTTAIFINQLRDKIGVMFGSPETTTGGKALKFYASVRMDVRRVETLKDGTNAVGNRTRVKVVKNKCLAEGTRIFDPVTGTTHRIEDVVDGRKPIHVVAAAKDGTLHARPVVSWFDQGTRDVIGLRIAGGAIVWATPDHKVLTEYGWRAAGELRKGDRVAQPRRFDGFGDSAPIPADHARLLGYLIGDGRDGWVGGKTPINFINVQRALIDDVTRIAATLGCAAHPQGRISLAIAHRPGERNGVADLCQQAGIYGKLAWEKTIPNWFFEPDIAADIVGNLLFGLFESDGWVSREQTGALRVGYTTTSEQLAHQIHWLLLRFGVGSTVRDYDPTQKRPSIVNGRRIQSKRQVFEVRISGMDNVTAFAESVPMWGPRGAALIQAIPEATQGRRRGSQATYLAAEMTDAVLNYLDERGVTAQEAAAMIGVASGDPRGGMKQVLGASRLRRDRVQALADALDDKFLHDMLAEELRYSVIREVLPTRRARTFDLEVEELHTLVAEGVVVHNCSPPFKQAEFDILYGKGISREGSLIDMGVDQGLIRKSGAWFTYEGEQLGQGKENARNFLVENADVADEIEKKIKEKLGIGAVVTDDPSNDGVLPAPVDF

[23] = target: Melanocortin receptor 4 (Homo sapiens, UniProt P32245); test: MC4R antagonist potency on cAMP, dose response, cell-based, TR-FRET, biased antagonists (AID 602298); format: functional;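 further: antagonist potency against agonist-stimulated cAMP production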
[24] = target: DNA dC->dU-editing enzyme APOBEC-3G (Homo sapiens, UniProt Q9HC16); test: APOBEC3G deaminase inhibitors, SAR follow-up, biochemical, fluorescence, single-stranded DNA substrate (AID 602136); format: functional; settings: read-out: IC50_Mean
[25] = nonselective inhibitors of cellular cAMP signaling, dose response, counter-screen for MC4R biased antagonist project, cell-based, TR-FRET cAMP detection (AID 602305); format: functional;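 further: U2OS cells stimulated with forskolin near its EC80 as the cAMP inducer; potency is for inhibition of forskolin-stimulated cAMP signaling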
[26] = target: DNA dC->dU-editing enzyme APOBEC-3A (Homo sapiens, UniProt P31941); test: SAR analysis of small molecule inhibitors of APOBEC3A DNA Deaminase via a fluorescence-based single-stranded DNA deaminase assay.; format: functional; settings: read-out: IC50_Mean

T1 sequence (P07237 whole entry): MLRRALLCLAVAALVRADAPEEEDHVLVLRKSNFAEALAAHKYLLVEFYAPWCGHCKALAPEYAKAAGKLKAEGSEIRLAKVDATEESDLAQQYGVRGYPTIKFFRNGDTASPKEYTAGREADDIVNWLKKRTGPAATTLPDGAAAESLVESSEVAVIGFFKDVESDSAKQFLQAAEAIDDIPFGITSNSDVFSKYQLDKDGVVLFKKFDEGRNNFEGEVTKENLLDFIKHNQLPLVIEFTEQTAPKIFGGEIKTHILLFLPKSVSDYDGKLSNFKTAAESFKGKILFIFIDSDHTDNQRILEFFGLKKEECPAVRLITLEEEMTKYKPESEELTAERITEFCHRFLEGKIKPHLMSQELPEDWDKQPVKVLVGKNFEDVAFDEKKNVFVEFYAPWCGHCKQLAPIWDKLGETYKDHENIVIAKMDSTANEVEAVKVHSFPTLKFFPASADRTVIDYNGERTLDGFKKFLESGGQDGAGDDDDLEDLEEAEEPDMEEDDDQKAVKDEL
Homeodomain-interacting protein kinase 2, sequence (Q9H2X6 whole entry): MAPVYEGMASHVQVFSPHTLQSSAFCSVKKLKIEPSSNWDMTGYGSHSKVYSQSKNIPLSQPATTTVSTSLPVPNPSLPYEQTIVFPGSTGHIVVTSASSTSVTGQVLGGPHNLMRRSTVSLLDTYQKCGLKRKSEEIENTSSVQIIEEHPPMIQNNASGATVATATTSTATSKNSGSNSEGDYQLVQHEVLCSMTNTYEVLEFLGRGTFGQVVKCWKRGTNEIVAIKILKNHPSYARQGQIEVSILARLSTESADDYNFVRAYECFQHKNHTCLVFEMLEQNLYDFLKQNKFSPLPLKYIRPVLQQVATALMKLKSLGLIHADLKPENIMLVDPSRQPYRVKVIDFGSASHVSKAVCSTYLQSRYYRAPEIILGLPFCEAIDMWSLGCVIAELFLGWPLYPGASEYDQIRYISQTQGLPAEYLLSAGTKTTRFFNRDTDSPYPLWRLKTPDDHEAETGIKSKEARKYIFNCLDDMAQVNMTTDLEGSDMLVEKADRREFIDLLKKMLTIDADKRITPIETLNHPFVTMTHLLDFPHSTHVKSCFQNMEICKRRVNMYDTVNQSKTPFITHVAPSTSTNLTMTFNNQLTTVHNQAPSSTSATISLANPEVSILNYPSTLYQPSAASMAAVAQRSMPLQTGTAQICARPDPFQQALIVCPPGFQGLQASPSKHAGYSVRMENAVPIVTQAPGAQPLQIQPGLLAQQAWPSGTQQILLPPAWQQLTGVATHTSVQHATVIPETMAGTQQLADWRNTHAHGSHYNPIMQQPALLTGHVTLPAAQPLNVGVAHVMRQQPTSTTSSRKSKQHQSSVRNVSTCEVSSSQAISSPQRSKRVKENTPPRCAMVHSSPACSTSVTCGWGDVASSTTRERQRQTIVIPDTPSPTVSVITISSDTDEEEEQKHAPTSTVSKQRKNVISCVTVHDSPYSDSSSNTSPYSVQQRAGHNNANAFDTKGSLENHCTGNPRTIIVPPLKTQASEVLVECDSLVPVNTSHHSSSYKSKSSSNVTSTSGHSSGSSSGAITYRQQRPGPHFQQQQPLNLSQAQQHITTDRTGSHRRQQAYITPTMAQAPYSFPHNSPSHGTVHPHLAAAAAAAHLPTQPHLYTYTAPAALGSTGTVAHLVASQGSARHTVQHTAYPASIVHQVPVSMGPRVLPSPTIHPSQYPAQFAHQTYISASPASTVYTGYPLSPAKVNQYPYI
DNA dC->dU-editing enzyme APOBEC-3G, sequence (Q9HC16 whole entry): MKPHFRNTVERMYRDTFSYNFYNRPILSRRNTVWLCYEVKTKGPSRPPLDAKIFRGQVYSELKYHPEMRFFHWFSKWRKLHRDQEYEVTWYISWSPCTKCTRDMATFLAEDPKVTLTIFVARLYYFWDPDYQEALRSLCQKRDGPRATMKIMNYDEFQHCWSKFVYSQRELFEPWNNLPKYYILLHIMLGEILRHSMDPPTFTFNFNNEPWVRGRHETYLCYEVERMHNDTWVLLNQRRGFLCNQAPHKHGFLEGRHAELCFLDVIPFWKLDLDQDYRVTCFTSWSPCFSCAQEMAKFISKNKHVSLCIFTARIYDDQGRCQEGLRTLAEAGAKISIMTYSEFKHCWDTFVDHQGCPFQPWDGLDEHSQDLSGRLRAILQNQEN
Glycogen synthase kinase-3 beta, sequence (P49841 whole entry): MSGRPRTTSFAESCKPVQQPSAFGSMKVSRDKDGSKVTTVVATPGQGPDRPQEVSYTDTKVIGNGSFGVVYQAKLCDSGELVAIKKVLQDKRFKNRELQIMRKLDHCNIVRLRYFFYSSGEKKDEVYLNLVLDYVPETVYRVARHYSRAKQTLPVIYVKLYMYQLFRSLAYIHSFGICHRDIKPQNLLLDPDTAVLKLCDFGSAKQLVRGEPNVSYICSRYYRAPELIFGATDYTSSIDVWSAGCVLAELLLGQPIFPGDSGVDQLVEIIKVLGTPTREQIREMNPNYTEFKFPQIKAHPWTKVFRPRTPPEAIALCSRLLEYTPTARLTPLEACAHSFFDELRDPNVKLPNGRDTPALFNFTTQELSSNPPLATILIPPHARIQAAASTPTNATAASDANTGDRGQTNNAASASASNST
Induced myeloid leukemia cell differentiation protein Mcl-1, sequence (Q07820 whole entry): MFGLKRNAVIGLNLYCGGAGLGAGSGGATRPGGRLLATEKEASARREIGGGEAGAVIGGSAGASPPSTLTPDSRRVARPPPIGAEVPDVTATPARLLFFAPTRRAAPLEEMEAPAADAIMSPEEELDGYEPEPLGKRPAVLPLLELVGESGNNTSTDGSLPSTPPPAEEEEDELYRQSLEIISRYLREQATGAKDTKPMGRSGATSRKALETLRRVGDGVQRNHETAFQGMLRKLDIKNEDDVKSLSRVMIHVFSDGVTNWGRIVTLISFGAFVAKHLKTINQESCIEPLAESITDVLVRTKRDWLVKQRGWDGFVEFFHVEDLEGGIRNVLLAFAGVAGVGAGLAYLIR
Cell division cycle 7-related protein kinase, sequence (O00311 whole entry): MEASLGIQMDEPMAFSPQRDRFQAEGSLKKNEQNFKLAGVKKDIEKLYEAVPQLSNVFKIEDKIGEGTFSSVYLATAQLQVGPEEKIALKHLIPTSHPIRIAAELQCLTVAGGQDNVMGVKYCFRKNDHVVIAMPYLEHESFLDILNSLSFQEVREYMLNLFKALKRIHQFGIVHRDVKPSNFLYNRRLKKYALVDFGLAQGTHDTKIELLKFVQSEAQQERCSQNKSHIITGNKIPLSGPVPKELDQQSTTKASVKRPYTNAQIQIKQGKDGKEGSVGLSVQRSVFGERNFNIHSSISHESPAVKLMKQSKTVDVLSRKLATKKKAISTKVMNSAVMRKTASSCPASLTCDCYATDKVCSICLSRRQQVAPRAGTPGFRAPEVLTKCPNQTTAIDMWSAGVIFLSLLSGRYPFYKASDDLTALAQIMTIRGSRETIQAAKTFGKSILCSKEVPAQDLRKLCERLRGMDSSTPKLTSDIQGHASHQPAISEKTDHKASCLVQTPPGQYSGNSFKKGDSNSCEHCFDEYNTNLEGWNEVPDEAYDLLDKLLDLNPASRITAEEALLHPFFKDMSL
Melanocortin receptor 4, sequence (P32245 whole entry): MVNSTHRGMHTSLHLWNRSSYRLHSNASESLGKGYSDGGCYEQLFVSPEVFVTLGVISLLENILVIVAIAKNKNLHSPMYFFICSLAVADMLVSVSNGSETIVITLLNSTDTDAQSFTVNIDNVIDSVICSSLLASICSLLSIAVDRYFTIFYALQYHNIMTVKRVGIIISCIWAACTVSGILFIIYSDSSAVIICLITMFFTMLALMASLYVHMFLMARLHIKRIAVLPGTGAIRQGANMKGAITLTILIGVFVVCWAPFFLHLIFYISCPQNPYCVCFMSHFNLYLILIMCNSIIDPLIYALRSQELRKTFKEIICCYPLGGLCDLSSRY
26S proteasome non-ATPase regulatory subunit 14, sequence (O00487 whole entry): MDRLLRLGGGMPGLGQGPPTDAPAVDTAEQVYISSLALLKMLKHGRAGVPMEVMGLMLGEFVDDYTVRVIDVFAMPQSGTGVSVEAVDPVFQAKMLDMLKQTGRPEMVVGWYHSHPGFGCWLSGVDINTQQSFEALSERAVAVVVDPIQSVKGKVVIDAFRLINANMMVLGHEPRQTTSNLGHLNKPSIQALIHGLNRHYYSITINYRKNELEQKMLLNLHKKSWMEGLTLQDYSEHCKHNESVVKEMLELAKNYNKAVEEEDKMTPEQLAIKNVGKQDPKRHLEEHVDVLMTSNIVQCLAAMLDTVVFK
Dual specificity protein kinase CLK4, sequence (Q9HAZ1 whole entry): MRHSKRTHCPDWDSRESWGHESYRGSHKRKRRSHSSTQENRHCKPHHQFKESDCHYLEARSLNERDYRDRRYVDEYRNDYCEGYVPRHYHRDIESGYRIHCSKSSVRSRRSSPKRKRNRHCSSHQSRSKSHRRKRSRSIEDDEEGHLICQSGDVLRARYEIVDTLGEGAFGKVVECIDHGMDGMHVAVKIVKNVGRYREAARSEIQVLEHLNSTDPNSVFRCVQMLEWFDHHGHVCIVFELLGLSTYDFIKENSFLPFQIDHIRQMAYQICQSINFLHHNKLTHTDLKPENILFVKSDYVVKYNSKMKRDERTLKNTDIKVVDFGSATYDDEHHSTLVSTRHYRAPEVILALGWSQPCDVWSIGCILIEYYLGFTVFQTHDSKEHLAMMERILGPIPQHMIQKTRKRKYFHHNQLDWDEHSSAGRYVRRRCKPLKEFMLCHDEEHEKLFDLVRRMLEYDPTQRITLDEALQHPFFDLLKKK
Melanin-concentrating hormone receptor 1, sequence (Q99705 whole entry): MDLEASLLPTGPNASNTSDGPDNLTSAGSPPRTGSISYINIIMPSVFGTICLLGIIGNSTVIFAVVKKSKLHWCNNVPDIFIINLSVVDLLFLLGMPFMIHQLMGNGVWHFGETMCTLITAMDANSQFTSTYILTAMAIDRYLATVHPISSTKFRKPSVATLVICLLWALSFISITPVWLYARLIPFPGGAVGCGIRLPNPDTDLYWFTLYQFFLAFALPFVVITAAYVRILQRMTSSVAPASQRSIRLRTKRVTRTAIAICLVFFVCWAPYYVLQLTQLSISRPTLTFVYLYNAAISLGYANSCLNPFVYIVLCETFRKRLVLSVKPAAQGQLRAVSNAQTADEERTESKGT

In the case of CC(NCC(O)COCc1ccc(Cl)cc1)c1ccccc1 (stereo unspecified), the AC50 [1] is reported as < 0.009 µM (active) and the AC50 [2] is reported as 0.009 µM (active).
With O=C1/C(=C/c2ccc(O)c(O)c2)Oc2cc(O)ccc21 [SULFURETIN] the IC50 [3] was 1.53 µM (active), the IC50 [4] was 19.7 µM (active) and the IC50 [5] was 52.9 µM (active). The IC50 [6] was 66.3 µM (active), the EC50 [7] was 0.424 µM (active) and the AC50 [8] was 2.32 µM (active). For the same compound, the IC50 [9] was 23.8 µM (active), the IC50 [10] was > 100 µM (inactive) and the IC50 [11] was 21.7 µM (active). The IC50 [12] was 20.6 µM (active).
For N#CC(c1ccccc1)c1cnn(Cc2cccc3ccccc23)c(=O)c1Cl (stereo unspecified), the IC50 [13] was ~0.702 µM (active) and the IC50 [14] was > 20 µM (inactive).
In the case of CN(C)CCCOc1cc(-c2ccncc2)cc2[nH]nc(N)c12, the Ki [15] is reported as 0.0126 µM (active), the Ki [16] is reported as > 3.16 µM (inactive) and the Ki [17] is reported as 0.158 µM (active). The Ki [18] was 6.31 µM (active), the Ki [19] was 0.0794 µM (active) and the Ki [20] was 0.794 µM (active).
With CS(=O)(=O)c1nc([N+](=O)[O-])nn1CCCc1ccccc1 the AC50 [21] was 7.7 µM (active), the EC50 [22] was 14.5 µM (active) and the IC50 [23] was > 64.5 µM (inactive). For the same compound, the IC50 [24] was > 99 µM (inactive), the IC50 [25] was > 64.5 µM (inactive) and the IC50 [26] was > 99 µM (inactive).

From ChEMBL document CHEMBL1201862, “PubChem BioAssay data set” (2004)
